Reference: article PMC11124136, “New Thiazolidine-4-One Derivatives as SARS-CoV-2 Main Protease Inhibitors” (Pharmaceuticals, 2024)
Like-named read-outs stand apart in the source and are kept apart here.

Key:
[1] = tested on: SARS-CoV-2 BetaCoV/Belgium/GHB-03021/2020 strain; experiment: microbe, parasite or virus in culture; format: cell-based; conditions: read-out: EC50 + CP_100356
in vitro = format: cell-based; conditions: African green monkey
Description: (§1) Vero-E6 GFP cells were seeded at 10^4 cells/well in 96-well black plates (PerkinElmer). The following day, cells were incubated, with or without compounds, with 2 μM P-gp inhibitor CP-100356 [47]. The media was removed 24 h after treatment, and the total well GFP fluorescence was measured using Victor NIVO 5 with 485/535 nm excitation wavelength. The cytotoxic effect of compounds was calculated as a percentage of cell viability with respect to untreated control. Data were analyzed using Prism 9. Version 9.1.2.

SARS-CoV-2 Mpro = SARS-CoV-2 Mpro (Severe acute respiratory syndrome coronavirus 2, UniProt P0DTD1); experiment: biochemical; format: biochemical; conditions: for IC50: FRET assay, concentration reducing Mpro activity by 50%, mean ± SD of three independent experiments, highest concentration tested 30 μM; for remaining activity at 30 µM: SARS-CoV-2 Mpro, at 30 μM (highest concentration tested), read-out: Percentage of control activity measured in the presence of the indicated drug concentration
Vero-E6 GFP cells = experiment: in vitro; format: cell-based; conditions: concentration reducing Vero E6-GFP viability by 50%; 2 μM CP-100356, 24 h; read-out: CC50 +CP_100356
Description: as §1

[2] = Severe acute respiratory syndrome coronavirus 2, Vero C1008, 72 h, concentration reducing viral replication by 50%, […]

SMILES | EC50 [1, 2] | melting point | CC50 at 24 h (in vitro) | IC50 (SARS-CoV-2 Mpro) | remaining activity at 30 µM (SARS-CoV-2 Mpro) | EC50 [1] | CC50 (Vero-E6 GFP cells)
O=C1CSC(c2ccc([N+](=O)[O-])cc2)N1CCc1ccccc1 (stereo not drawn) [Compound 4a, 2-(4-nitrophenyl)-3-(phenylethyl)-1,3-thiazolidin-4-one] | > 100 µM | 125 °C | > 100 µM | > 30 µM | 53% |  | 
O=C1CSC(c2ccc([N+](=O)[O-])cc2)N1CCc1ccccc1F (stereo not drawn) [Compound 4b, 2-(4-nitrophenyl)-3-(2-fluorophenylethyl)-1,3-thiazolidin-4-one] | > 100 µM | 150 to 151 °C | > 100 µM | > 30 µM | 70% |  | 
O=C1CSC(c2ccc([N+](=O)[O-])cc2)N1CCc1cccc(F)c1 (stereo not drawn) [Compound 4c, 2-(4-nitrophenyl)-3-(3-fluorophenylethyl)-1,3-thiazolidin-4-one] | > 100 µM | 165 to 167 °C | > 100 µM | > 30 µM | 87% |  | 
O=C1CSC(c2ccc([N+](=O)[O-])cc2)N1CCc1ccc(F)cc1 (stereo not drawn) [Compound 4d, 2-(4-nitrophenyl)-3-(4-fluorophenylethyl)-1,3-thiazolidin-4-one] | > 100 µM | 149 to 151 °C | > 100 µM | 27.5 ± 5.5 µM |  |  | 
COc1ccccc1CCN1C(=O)CSC1c1ccc([N+](=O)[O-])cc1 (stereo not drawn) [Compound 4e] | > 100 µM |  | > 100 µM |  | 54% |  | 
O=C1CSC(c2ccc([N+](=O)[O-])cc2)N1CCc1ccccc1Cl (stereo not drawn) [Compound 4e] |  | 123 to 124.5 °C |  |  |  |  | 
COc1ccc(CCN2C(=O)CSC2c2ccc([N+](=O)[O-])cc2)cc1 (stereo not drawn) [Compound 4f] | > 100 µM |  | > 100 µM |  | 82% |  | 
O=C1CSC(c2ccc([N+](=O)[O-])cc2)N1CCc1ccccc1Cl (stereo not drawn) [Compound 4g] | > 100 µM |  | > 100 µM |  |  |  | 
O=C1CSC(c2ccc([N+](=O)[O-])cc2)N1CCc1ccc(Cl)cc1 (stereo not drawn) [Compound 4i] | > 100 µM |  | > 100 µM |  | 54% |  | 
CC(C)C[C@H](NC(=O)OCc1ccccc1)C(=O)N[C@@H](CC1CCNC1=O)C(O)S(=O)(=O)O (stereo partly drawn) [GC376, reference compound] |  |  |  |  |  | 0.626 ± 0.06 µM | > 100 µM
